Results published in ChEMBL document CHEMBL1201862, “PubChem BioAssay data set” (2004).
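Method: 48-hour compound exposure of cells in 96-well plates, five concentrations, linear interpolation of endpoints. GI50 marks 50% less growth.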 The source made the active and inactive calls. Cut-off read from the data, not from the text of the source: active = GI50 up to about 1.1 µM and inactive = higher.

How the values were obtained:
Test in all cases: NCI anticancer screen, dose series, 48 h
[1] = system: RPMI-8226
[2] = system: TK-10
[3] = system: T47D
[4] = system: SW-620
[5] = system: M14
[6] = system: OVCAR-4
[7] = system: UACC-62
[8] = system: HCC 2998
[9] = system: HL-60
[10] = system: IGROV-1
[11] = system: EKVX
[12] = system: CCRF-CEM
[13] = system: OVCAR-5
[14] = system: MDA-MB-231
[15] = system: MDA-N
[16] = system: SNB-19
[17] = system: UACC-257
[18] = system: MDA-MB-435
[19] = system: U-251
[20] = system: SF-295

Measured: GI50

O=c1cc(O)c2c(O)cc(O)cc2o1
inactive: [1] > 100 µM | [2] > 100 µM | [3] > 100 µM | [4] > 100 µM | [5] > 100 µM | [6] > 100 µM | [7] > 100 µM | [8] > 100 µM | [9] > 100 µM | [10] > 100 µM | [11] > 100 µM | [12] > 100 µM | [13] > 100 µM | [14] > 100 µM | [15] > 100 µM | [16] > 100 µM | [17] > 100 µM | [18] > 100 µM | [19] > 100 µM | [20] > 100 µM

C/C(=N\N)C(CN(C)C)C(c1ccccc1)c1c(O)c2ccccc2oc1=O (centres undefined)
inactive: [1] 97.3 µM | [2] > 100 µM | [3] > 10 µM | [4] > 100 µM | [5] > 100 µM | [6] > 65.6 µM | [7] > 73.6 µM | [8] > 100 µM | [9] > 26.7 µM | [10] > 100 µM | [11] > 70.8 µM | [12] > 27 µM | [13] > 100 µM | [14] > 100 µM | [15] > 100 µM | [16] > 100 µM | [17] > 100 µM | [18] > 100 µM | [19] > 87.1 µM | [20] > 86.3 µM

CC(=O)c1c(=O)n(-c2ccc(C)cc2)c(O)c2c(N)n[nH]c12
inactive: [1] > 100 µM | [2] > 100 µM | [3] > 100 µM | [4] > 100 µM | [5] > 100 µM | [6] > 100 µM | [7] > 100 µM | [8] > 100 µM | [9] > 100 µM | [10] > 100 µM | [11] > 100 µM | [12] > 100 µM | [13] > 100 µM | [14] > 100 µM | [15] > 100 µM | [16] > 100 µM | [17] > 100 µM | [18] > 100 µM | [19] > 100 µM

CC1=C(C)C(=O)C(C2=C(C3=CC(=O)C(C)=C(C)C3=O)C(=O)c3ccccc3C2=O)=CC1=O
active: [9] 0.255 µM | [12] 0.619 µM
inactive: [1] 1.3 µM | [2] 6.35 µM | [3] 2.96 µM | [4] 1.82 µM | [5] 1.82 µM | [6] 1.7 µM | [7] 2.51 µM | [8] 4.66 µM | [10] 2.48 µM | [11] 2.12 µM | [13] 13 µM | [14] 2.37 µM | [15] 1.91 µM | [16] 11.2 µM | [17] 1.99 µM | [18] 1.5 µM | [19] 3.62 µM | [20] 12.1 µM

C#C[C@]1(O)CC[C@H]2[C@@H]3CCC4=C/C(=N/OC(=O)c5cccc6c(=O)c7ccccc7[nH]c56)CC[C@@H]4[C@H]3CC[C@@]21C
inactive: [1] 13.6 µM | [2] > 100 µM | [3] 29 µM | [4] 56.2 µM | [5] 56.5 µM | [6] > 100 µM | [7] 35.6 µM | [8] 50.5 µM | [9] 17.4 µM | [10] 68.4 µM | [11] 71 µM | [12] 14.4 µM | [13] > 100 µM | [14] 51.8 µM | [15] 43.2 µM | [16] > 100 µM | [17] 37.2 µM | [18] 43.1 µM | [19] 62.1 µM | [20] 92 µM

CS[C@]12C(=O)C[C@@]3(C)[C@@H](CC[C@]3(O)C(=O)CO)[C@@H]1CCC1=CC(=O)CC[C@@]12C
inactive: [1] 30.1 µM | [2] > 100 µM | [3] > 100 µM | [4] 68.5 µM | [5] 46 µM | [6] > 100 µM | [7] > 100 µM | [8] 26.9 µM | [9] 35.3 µM | [10] > 100 µM | [11] > 100 µM | [12] 42.8 µM | [13] > 100 µM | [14] > 100 µM | [15] 26.6 µM | [16] > 100 µM | [17] > 100 µM | [18] 30.1 µM | [19] > 100 µM | [20] > 100 µM

Nc1ccn(CC(O)c2cc3ccccc3[nH]2)c(=O)n1 (centres undefined)
inactive: [1] > 100 µM | [2] > 100 µM | [3] > 100 µM | [4] > 100 µM | [5] > 100 µM | [6] > 100 µM | [7] > 100 µM | [8] > 100 µM | [9] > 100 µM | [10] > 100 µM | [11] > 100 µM | [12] > 100 µM | [13] > 100 µM | [14] > 100 µM | [15] > 100 µM | [16] > 100 µM | [17] > 100 µM | [18] > 100 µM | [19] > 100 µM | [20] > 100 µM
